# Reference: patent publication US6008188A, “Cytokine potentiator and pharmaceutical formulation for cytokine administration” (Kanebo Limited, priority 1994, dated 1999)
# What was measured:
# [1] = test system: Normal human fibroblasts [CCD45SK (ATCC CRL 1506)]; assay: Response to TGF-β1: TIMP production by normal human fibroblasts (Test Examples 12-13); assay type: cell-based; settings: Test Example 12, 1 mM, 6 days, 3 ng/ml TGF-β1, 3 days
# Method: (§1) Normal human fibroblasts [CCD45SK (ATCC CRL 1506) as prepared from the skin of a person] were suspended at a cell density of 1×10^5 cells/ml in the MEM medium, comprising 10% (V/V) FBS and 1% (V/V) non-essential amino acids (produced by Dai-Nippon Pharmaceutical Co.). The suspended cells were seeded into each well of a 12-well plate in an amount of 0.8 ml/well (corresponding to 8×10^4 cells/well) and incubated in a saturated aqueous vapor with 5% CO2 at 37° C.
# [2] = test system: Normal human fibroblasts [CCD45SK (ATCC CRL 1506)]; assay: Response to PDGF: procollagenase production by normal human fibroblasts (Test Example 11); assay type: cell-based; settings: 1 mM, 6 days, 30 ng/ml PDGF-BB
# Method: as §1
smiles,measurement,setting,value
"CN[C@@H](CO)C(=O)O [Example 1, N-methyl-L-serine]",activity at 1000 µM,"[1]; Homo sapiens, Fibroblast, control = 100, read-out: Response to TGF-β1 Increment",240%
same,TIMP Production,"[1]; mean ± SD, n = 3",240 ± 21 unit/ml
same,Procollagenase Production,"[2]; mean ± SD, n = 3",4.2 ± 2.0 unit/ml
same,activity at 1000 µM,"[2]; Homo sapiens, Fibroblast, 144 h, control = 100, read-out: Response to PDGF Increment",690%
